Laboratory results as given in patent US11344601B2, “Tumor microenvironment-related target TAK1 and application thereof in inhibition of tumor” (Shanghai Institutes for Biological Sciences, Chinese …, priority 2017, dated 2022).

Tests used:
[1] = system: NSCLC cell line A549/stromal cell line W138 xenograft tumors; test: NSCLC xenograft (A549/W138) preclinical chemotherapy, terminal tumor volume; type: in vivo, mice; details: chemotherapy alone (group 6 vs group 5)
Description: (§1) FIG. 83. Statistical comparative analysis of terminal tumor volumes in NSCLC tumors transplanted mice (NSCLC cell line A549/stromal cell line […]1 for administration alone or in combination with bleomycin-based chemotherapy). […] All experimental mouse experiments were carried out in strict accordance with the relevant regulations of the Institutional animal care and use committee (IACUC) of the shanghai Institute of Life Sciences of the Chinese Academy of Sciences. ICR-SCID mice at an age of about 6 weeks (about 25 g in body weight) were used in this patent-related animal experiment. Stromal cells PSC27 and epithelial cells were mixed at a ratio of 1:4, with each implant containing 1.25×10^6 cells for tissue recombination. The transplant tumor was implanted into mice subcutaneously, and the animals were euthanized at the end of Week 8 after transplantation. The tumor volume was calculated according to the following formula: […] Similarly, lung and breast cancer xenograft tumors were formed by tissue recombination with A549 (non-small cell lung cancer cell line) and W138 (lung fibroblast line), MDA-MB-231 (triple negative breast cancer cell line) and HBF1203 (breast fibroblast line), respectively. In the preclinical chemotherapy trial, mice subcutaneously transplanted with tumors were fed standard experimental diet. […]

[2] = system: BCa cell line MDA-MB-231/stromal cell line HBF1203 xenograft tumors; test: BCa xenograft (MDA-MB-231/HBF1203) preclinical chemotherapy, terminal tumor volume; type: in vivo, mice; details: chemotherapy alone (group 6 vs group 5), MDA-MB-231/HBF1203 tumors
Description: as §1, with “84.” for “83.”, “BCa” for “NSCLC”, “(BCa” for “(NSCLC”, “MDA-MB-231/stromal” for “A549/stromal”, “combined” for “in combination”, “bleomycin for” for “bleomycin-based”

ATM = target: T1, ATM (Homo sapiens, UniProt Q13315); test: p-ATM antibody-mediated IP of bleomycin-treated PSC27 cells (ATM-TRAF6 interaction); type: cell-based; details: bleomycin-treated stromal cells
T1 construct: endogenous in cells; host or cells: PSC27 human prostate stromal cells
T1 sequence (Q13315 whole entry): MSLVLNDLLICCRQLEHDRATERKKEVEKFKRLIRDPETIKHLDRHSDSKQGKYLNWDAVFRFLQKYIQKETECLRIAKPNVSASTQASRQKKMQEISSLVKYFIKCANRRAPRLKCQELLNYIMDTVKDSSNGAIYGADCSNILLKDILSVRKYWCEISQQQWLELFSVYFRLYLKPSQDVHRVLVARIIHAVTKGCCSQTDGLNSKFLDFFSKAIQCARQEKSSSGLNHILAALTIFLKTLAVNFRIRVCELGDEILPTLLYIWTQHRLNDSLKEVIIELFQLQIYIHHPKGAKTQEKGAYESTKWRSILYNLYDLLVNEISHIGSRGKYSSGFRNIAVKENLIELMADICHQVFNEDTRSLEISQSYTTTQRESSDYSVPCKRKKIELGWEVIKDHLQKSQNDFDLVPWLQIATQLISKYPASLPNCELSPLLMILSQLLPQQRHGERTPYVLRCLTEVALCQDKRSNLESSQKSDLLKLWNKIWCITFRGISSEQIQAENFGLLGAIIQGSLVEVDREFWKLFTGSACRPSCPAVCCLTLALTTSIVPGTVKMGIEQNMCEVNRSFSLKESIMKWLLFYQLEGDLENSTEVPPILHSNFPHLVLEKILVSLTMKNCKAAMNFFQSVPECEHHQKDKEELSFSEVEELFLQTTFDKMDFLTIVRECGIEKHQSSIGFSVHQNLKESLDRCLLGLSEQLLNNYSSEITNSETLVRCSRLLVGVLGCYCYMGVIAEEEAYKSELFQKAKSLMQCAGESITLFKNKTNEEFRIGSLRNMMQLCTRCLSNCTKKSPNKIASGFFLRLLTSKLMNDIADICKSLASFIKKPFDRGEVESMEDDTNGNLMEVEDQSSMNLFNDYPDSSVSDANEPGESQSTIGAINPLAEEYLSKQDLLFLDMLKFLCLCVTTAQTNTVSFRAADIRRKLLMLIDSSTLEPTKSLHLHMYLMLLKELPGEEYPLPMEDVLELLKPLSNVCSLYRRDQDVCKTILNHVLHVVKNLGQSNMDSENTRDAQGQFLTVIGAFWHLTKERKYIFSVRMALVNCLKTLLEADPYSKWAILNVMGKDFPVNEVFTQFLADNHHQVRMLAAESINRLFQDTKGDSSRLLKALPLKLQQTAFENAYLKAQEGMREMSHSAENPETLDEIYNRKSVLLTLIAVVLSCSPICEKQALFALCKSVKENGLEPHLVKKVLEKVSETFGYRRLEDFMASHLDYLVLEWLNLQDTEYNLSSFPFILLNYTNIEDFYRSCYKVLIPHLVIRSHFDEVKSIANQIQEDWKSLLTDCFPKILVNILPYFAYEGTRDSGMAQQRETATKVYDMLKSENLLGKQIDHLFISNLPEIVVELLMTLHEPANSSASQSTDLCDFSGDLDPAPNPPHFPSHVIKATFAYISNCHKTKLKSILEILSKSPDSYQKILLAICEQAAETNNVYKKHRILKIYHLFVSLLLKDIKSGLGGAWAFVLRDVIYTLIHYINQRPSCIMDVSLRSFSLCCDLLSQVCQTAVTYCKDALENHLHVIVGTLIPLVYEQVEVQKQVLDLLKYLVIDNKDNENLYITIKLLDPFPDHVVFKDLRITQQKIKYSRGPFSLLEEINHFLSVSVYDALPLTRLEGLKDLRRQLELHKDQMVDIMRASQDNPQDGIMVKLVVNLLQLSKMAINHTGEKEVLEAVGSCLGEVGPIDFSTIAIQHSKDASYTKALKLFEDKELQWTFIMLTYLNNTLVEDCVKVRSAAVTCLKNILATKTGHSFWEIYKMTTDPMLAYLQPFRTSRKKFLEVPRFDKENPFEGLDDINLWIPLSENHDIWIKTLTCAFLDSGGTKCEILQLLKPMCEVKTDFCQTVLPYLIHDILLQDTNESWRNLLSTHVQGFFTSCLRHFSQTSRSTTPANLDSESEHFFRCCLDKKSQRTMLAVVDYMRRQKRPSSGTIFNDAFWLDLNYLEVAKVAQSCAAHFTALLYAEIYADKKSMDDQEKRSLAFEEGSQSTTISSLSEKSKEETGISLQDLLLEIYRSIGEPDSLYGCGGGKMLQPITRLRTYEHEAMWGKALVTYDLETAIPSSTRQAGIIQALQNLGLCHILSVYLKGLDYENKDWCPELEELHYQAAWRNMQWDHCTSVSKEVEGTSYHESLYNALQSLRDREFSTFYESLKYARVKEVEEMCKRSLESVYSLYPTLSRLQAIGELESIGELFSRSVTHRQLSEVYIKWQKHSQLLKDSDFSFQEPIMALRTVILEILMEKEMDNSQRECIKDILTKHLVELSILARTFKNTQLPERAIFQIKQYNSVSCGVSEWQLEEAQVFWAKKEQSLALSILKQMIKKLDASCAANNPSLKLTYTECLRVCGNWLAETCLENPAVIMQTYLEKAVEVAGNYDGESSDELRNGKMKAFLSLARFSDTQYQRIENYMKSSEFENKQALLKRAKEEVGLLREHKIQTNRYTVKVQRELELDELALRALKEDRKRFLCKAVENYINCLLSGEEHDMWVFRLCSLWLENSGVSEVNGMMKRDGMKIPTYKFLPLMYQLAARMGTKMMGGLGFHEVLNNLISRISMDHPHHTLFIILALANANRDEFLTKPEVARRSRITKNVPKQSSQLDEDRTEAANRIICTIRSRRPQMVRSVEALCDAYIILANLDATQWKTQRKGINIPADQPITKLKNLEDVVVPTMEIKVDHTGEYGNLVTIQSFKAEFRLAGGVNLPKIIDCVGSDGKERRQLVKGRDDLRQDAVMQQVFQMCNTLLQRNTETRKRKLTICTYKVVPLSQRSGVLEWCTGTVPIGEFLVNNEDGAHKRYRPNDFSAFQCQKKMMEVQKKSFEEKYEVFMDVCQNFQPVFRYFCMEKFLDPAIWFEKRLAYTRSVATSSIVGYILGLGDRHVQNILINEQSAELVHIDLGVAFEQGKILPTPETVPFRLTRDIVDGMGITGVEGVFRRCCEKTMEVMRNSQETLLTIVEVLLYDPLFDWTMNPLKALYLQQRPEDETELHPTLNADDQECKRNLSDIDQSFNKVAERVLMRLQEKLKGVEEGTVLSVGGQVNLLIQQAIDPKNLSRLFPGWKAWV
Description: Phosphorylated ATM (p-ATM) antibody-mediated IP analysis. The expression levels of TRAF6, p-ATM and ATM in IP precipitates were detected by Western blot. TRAF6, a loading control. PSC27 was treated with bleomycin (50 ug/ml) and then with the ATM small molecule inhibitor KU55933 (KU, 10 μM).

Row | interaction between activated ATM and TRAF6 (ATM) | Compound | decrease in terminal tumor volume [1] [%] | decrease in terminal tumor volume [2] [%]
1 | – | bleomycin | 38 | 32
2 | abolished | O=c1cc(-c2cccc3c2Sc2ccccc2S3)oc(N2CCOCC2)c1 [KU55933] | – | –
